Legend:
[1] = tested on: taxane site of assembled cross-linked MTs; assay: Displacement of FTX2 from the taxane site (fluorescence polarization); type: binding, calf; conditions: for incremental binding free energy (ΔΔG), PTX-to-derivative modification: 35 °C; for ΔH 0 app: Van't Hoff analysis, 26–42 °C; for ΔG 0 app at 26 °C: from binding constant, −RT Ln Ka; for ΔS 0 app: slope of ΔG0app versus T
Method: Purified calf brain tubulin and chemicals were obtained as previously described. Tau-mCherry was expressed and purified as described previously. Human Kif5B-EGFP (amino acids 1-905), containing a C terminal fluorescent-tag followed by a 3C protease cleavage site and a 6 × His-tag was expressed and purified as in with some modifications. Prior to purification, cells were resuspended in 1:1 ratio of lysis buffer (30 mM HEPES pH 7.5, 300 mM NaCl, 0.5 mM ATP, 5% glycerol, 20 mM imidazole, […]) supplemented with 1× Protease inhibitor cocktail and benzonase to the final concentration of 25 units/ml. Cells were homogenized by repeated pipetting. Cells were lysed by spinning for 45 min at 40,000 rpm in 45 Ti fixed-angle rotor (Beckman Coulter) at 4 °C. The supernatant was incubated with pre-equilibrated HisPUR NiNTA agarose resin (Thermo Fisher Scientific) for 1 h in a tightly closed gravity-flow column (Thermo Fisher Scientific) at 4 °C by slowly rotating. Subsequently, the resin was washed once lysis buffer and then with buffer B (30 mM HEPES pH 7.5, 300 mM NaCl, 0.5 mM ATP, 5% glycerol, 30 mM imidazole, […]). The protein was eluted from the resin after an overnight cleavage of the 6 × His-tag with 3C HRV protease in lysis buffer at 4 °C. The eluted protein was further purified via size exclusion chromatography on Superdex 200 10/300 GL column equilibrated in exclusion buffer (30 mM HEPES pH 7.5, 300 mM NaCl, 0.5 mM ATP, 5% glycerol, […]). Peak fractions were analyzed via SDS-PAGE, pooled and the protein was concentrated with Amicon Ultra-15 Centrifugal Filter tubes (Millipore). Purified proteins were aliquoted, snap-frozen in liquid N2, and stored at −80 °C.
The equilibrium binding constant of 1a and 1b to the taxane site of assembled MTs were determined by the displacement of FTX2 from the taxane site in cross-linked MTs. The displacement isotherm of each ligand was measured at least three times in two different plates with a fluorescence polarization microplate reader, as described. A mixture of 50 nM taxane binding sites and 50 nM FTX2 in GAB buffer was sampled in a 96-well plate. […] After mixing the samples for 10 min by shaking at 250 rpm, they were incubated 20 min at the desired temperatures (26, 35 or 42 °C) and their anisotropies were measured using a Spark Tecan plater reader in fluorescence polarization at emission of 535 nm and excitation of 485 nm. A sample containing 50 nM taxane binding sites was employed as blank, and a 50 nM solution of FTX2 in GAB, 0.1 mM GTP was employed as anisotropy standard. G factor was calculated as a mean over several cells in different conditions. The molar saturation fraction, X b , of the probe for each competitor concentration is calculated from the polarization values measured, P. Measurements of the polarization of FTX2 completely displaced (P 0 ) and, in absence of the competitor ligand (P sat), are required for data processing. The binding of FTX2 in the presence of the competitor ligand (X b = (P–P 0 /P sat – P 0 ) · X sat) was calculated and best fitted to the equilibrium binding constant of the competitor assuming unitary stoichiometry and the binding constant of the reference ligand (FTX2) with a PC program (Equigra v5).
Once the equilibrium binding constants are measured at different temperatures, the standard free energy of binding at a given temperature is calculated from the binding constant as ΔG 0app = −RT Ln K a, the standard enthalpy of the binding reaction is calculated from the representation of Ln K a versus 1/T (Van’t Hoff representation), and the slope of this representation multiplied by −R is equal to −ΔH 0app. The standard entropy of binding to ΔS 0app is calculated from the slope of the linear regression of ΔG 0app versus T.

[2] = tested on: Kb-V1 cells (overexpressing PgP); assay: MTT cytotoxicity assay, Kb-V1; conditions: for IC50: Homo sapiens, KB-V1, 48 h, read-out: Cytotoxicity IC50 Kb-V1; for R/S (resistant to sensitive ratio): IC50 Kb-V1 / IC50 Kb-3.1
Method: Antiproliferative assays were performed as described. […] Then, increasing concentrations of drugs were added and incubated for 48 h prior to the reaction with the MTT solution. IC50 values were obtained by fitting the experimental data (absorbance at 570/690 nm) to a four-parameter logistic curve using SigmaPlot 14.5 software package (Systat Software, Inc., San Jose, CA, USA) and IC50 values were expressed as mean ± SEM from three independent experiments, each performed in duplicate.

Structure (SMILES) | fold lower binding constant than PTX [1] [fold] | incremental binding free energy (ΔΔG), PTX-to-derivative modification [1] [kJ mol^–1] | ΔH 0 app [1] | ΔG 0 app at 26 °C [1] | ΔS 0 app [1] | IC50 [2] [µM] | R/S (resistant to sensitive ratio) [2]
CC(=O)OC1C(=O)C2(C)C(OC(=O)CCCCC(=O)OC3CCc4ccccc43)CC3OCC3(OC(C)=O)C2C(OC(=O)c2ccccc2)C2(O)CC(OC(=O)C(O)C(NC(=O)c3ccccc3)c3ccccc3)C(C)=C1C2(C)C (stereo not shown) [1a, 7-O-(6″-O-(2‴,3‴-Dihydroinden-1‴-yl)hexanedioyl) Paclitaxel] | ~100 | 9.8 | –24 ± 4 kJ mol^–1 | –31.9 ± 0.1 kJ mol^–1 | –27 ± 5 J mol ^aK^–1 | > 40 | >142
COc1ccc2c(c1)CC(NC(=O)CCCCCCCC(=O)OC1CC3OCC3(OC(C)=O)C3C(OC(=O)c4ccccc4)C4(O)CC(OC(=O)C(O)C(NC(=O)c5ccccc5)c5ccccc5)C(C)=C(C(OC(C)=O)C(=O)C13C)C4(C)C)CC2 [1b, 7-O-((S)-9″-(7‴-Methoxy-1‴,2‴,3‴,4‴-tetrahydronaphthalen-2‴-yl)amino) −9″-oxononanoyl) Paclitaxel] | ~100 | 12.8 | –35 ± 7 kJ mol^–1 | –28.9 ± 0.3 kJ mol^–1 | 20 ± 5 J mol ^aK^–1 | 19 | 127
CC(=O)O[C@H]1C(=O)[C@]2(C)[C@@H](OC(=O)[C@H](C)NC(=O)c3ccc(-c4c5cc(F)c(=O)cc-5oc5cc(O)c(F)cc45)c(C(=O)O)c3)C[C@H]3OC[C@@]3(OC(C)=O)[C@H]2[C@H](OC(=O)c2ccccc2)[C@]2(O)C[C@H](OC(=O)[C@H](O)[C@@H](NC(=O)c3ccccc3)c3ccccc3)C(C)=C1C2(C)C [FTX2, Flutax2] |  | −0.3 |  |  |  |  | 
CC(=O)O[C@H]1C(=O)[C@@]2(C)[C@H]([C@H](OC(=O)c3ccccc3)[C@]3(O)C[C@H](OC(=O)[C@H](O)[C@@H](NC(=O)c4ccccc4)c4ccccc4)C(C)=C1C3(C)C)[C@]1(OC(C)=O)CO[C@@H]1C[C@@H]2O [PTX, Paclitaxel] |  |  |  |  |  | 2.7 ± 0.6 | 

Reference: article PMC13492380, “Dissecting Structural and Functional Determinants of Microtubules Stabilization through Guided Chemical Modulation” (Journal of Medicinal Chemistry, 2026)
